Series [1] has as its system B. fragilis. Kind of series: in-vitro MIC of ceftazidime alone and with Example 1. The class given is cell-based. The source says: (§1) The in-vitro synergistic activity of the compound of Example 1 above (i.e sodium (5R)-6-[(Z)-(2,3-dihydroimidazo[2,1-b]thiazol-6-yl) methylene]penem-3-carboxylate) with ceftazidime was investigated.
The test system of series [2] is strain of Enterobacter producing extended spectrum β-lactamase enzymes. The description is as above. The class given is cell-based. The settings on record: Enterobacter ESBL strain.
From the text: as §1

The next series concerns E. cloacae. Kind of series: in vitro selection of ceftazidime-resistant cells in a growing population. Type of series: cell-based.
Series [3] deals with B. fragilis. In words: in-vitro synergy with cefotaxime. The class given is cell-based. Conditions: 1 μg/ml Example 1. The source says: (§2) The in-vitro synergistic activity of the compound of Example 1 above (i.e sodium (5R)-6-[(Z)-(2,3-dihydroimidazo[2,1-b]thiazol- 6-yl)methylene]penem-3-carboxylate) with cefotaxime was investigated.
Series [4] has as its system strains of Enterobacteriaceae producing extended spectrum β-lactamases. Kind of series: in-vitro synergy with cefotaxime. The class given is cell-based. Conditions: 1 μg/ml Example 1.
From the text: as §2

The subject of series [5] is TEM-3 producing strain of K.pneumoniae. Kind of series: MIC of cefotaxime, titration with Example 1. The class given is cell-based. The settings on record: K.pneumoniae TEM-3. The procedure: as §2
The MIC (inimum inhibitory concentration) of cefotaxime against one TEM-3 producing strain of K.pneumoniae was measured.

Series [6] deals with strain of Ent.cloacae producing high levels of Class 1 β-lactamases constitutively. Kind of series: MIC of cefotaxime, titration with Example 1. The class given is cell-based. The settings on record: in presence of 1 μg/ml Example 1; Ent.cloacae high Class 1.
The subject of series [7] is Enterobacter cloacae (4593) producing high levels of derepressed class (AmpC) β-lactamase. In words: mouse intraperitoneal infection, cefotaxime CD50. The class given is in vivo, mice. On the procedure:
(§3) In these studies, mice were infected intraperitoneally with a lethal challenge inoculum of strains of either Klebsiella pneumoniae (520), producing extended-spectrum TEM type ββ-lactamase, (TEM-3) or Enterobacter cloacae (4593) producing high levels of derepressed class (AmpC) ββ-lactamase. Virulence of all strains was enhanced by suspending the bacteria in hog gastric mucin prior to infection.
(§4) Mice were dosed subcutaneously at 1 and 5 hours post-infection, with either cefotaxime alone or coadministered with the ββ-lactamase inhibitor at 1 mg/kg or 5 mg/kg.
(§5) 1 CD50 (dose protecting 50% of animals from lethal infection) calculated from groups of 5 animals per test, subjected to a range of 4 dose levels (4-fold serial dilutions)
(§6) Efficacy was assessed by the number of animal surviving at 4 days after infection, and the total dose that protected 50% of treated animals (CD50 value) was calculated.

The test system of series [8] is Klebsiella pneumoniae (520), producing TEM-3 β-lactamase. Kind of series: mouse intraperitoneal infection, cefotaxime CD50. The class given is in vivo, mice. On the procedure: as §3, §4, §5, §6
For series [9], the system named is Escherichia coli (E96), producing TEM-1 β-lactamase. In words: mouse intraperitoneal infection, amoxycillin CD50. The class given is in vivo, mice. The settings on record: coadministration with Example 1 versus amoxycillin alone. The procedure:
In these studies, mice were infected intrapenitoneally with a lethal challenge inoculum of strains of Escherichia coli (E96), producing TEM-1 ββ-lactamase, for tests to protect amoxycillin. Virulence of all strains was enhanced by suspending the bacteria in hog gastric mucin prior to infection.
Mice were dosed subcutaneously at 1 and 5 hours post-infection, with either amoxycillin alone or coadministered with the ββ-lactamase inhibitor at 2 mg/kg.
as §6

A further series in a line: serum half life. The settings on record: in vivo.
Another series concerns Ent. cloacae N1. Kind of series: in-vitro MIC of amoxycillin alone and with Example 1. The class given is cell-based. The settings on record: alone; β-lactamase 1 (inducible expression).
For a further series, the system named is Ent. cloacae P99. The description is as above. The class given is cell-based. The settings on record: alone; β-lactamase 1 (high constitutive expression).
Another series has as its system S. aureus Russell. The series is described as above. Type of series: cell-based. Conditions: alone; β-lactamase 2a.
A further series concerns E. coli JT39. The description is as above. The class given is cell-based. Conditions: alone; β-lactamase 2b (low expression).
Another series concerns JT4. The series is described as above. The class given is cell-based, P. coli. Conditions: alone; β-lactamase 2b (high expression).
Another series deals with P. mirabilis C889. The description is as above. Type of series: cell-based. The settings on record: alone; β-lactamase 2c.
The subject of another series is E. coli P91. Described as above. Type of series: cell-based. Conditions: alone; β-lactamase 2d.
A further series relates to P. vulgaris C. Described as above. Type of series: cell-based. Conditions: alone; β-lactamase 2e.
Setting [10] is: in presence of 1 μg/ml Example 1.

Several values for one entry are separate records, joined by “and”; a condition that tells them apart may be missing. Identical values can stand only once. Counter-ions that a name gives are not always drawn. Bounds are passed on as bounds.

Consider `O=C([O-])C1=CS[C@@H]2/C(=C\c3cn4c(n3)SCC4)C(=O)N12.[Na+]` [Example 1, Sodium (5R)-6-[(Z)-(2,3-Dihydroimidazo[2,1-b]thiazol-6-yl) Methylene]-penem-3-carboxylate], for which the MIC of ceftazidime result in the series with B. fragilis [1] (setting [10]) was “around 4 μg/ml”; in series [2] (setting [10]), “around 2 μg/ml”. Also, in the series on E. cloacae (ceftazidime at 0.5 MIC plus Example 1), the “rate of emergence of resistant isolates” value is “reduced the rate of emergence of resistant isolates dramatically”. Also, the “final level of resistance” value in the series with E. cloacae (combination of ceftazidime and Example 1 versus ceftazidime alone) is recorded as “much lower than that observed with ceftazidime alone”. For the same compound, the synergy with cefotaxime entry (with B. fragilis [3]; in series [4]) was “Effective synergy” throughout. In series [5] (Example 1 at concentrations as low as 0.25 μg/ml), the MIC of cefotaxime result is given as “below 1 μg/ml”. Besides, the “cefotaxime MIC” value in series [6] is “below 1 μg/ml”. For the same compound, the “protection of infected animals” value is on record as “consistent protection” in series [7] (cefotaxime plus Example 1 compared with cefotaxime alone, E. cloacae (4593)) and “consistent protection” in [8] (cefotaxime plus Example 1 compared with cefotaxime alone, K.pneumoniae (520)). Moreover, the “effectiveness of amoxycillin in protecting animals” value in series [9] is “markedly more effective”. Moreover, the serum half life entry in the series “serum half life” was “advantageously long”.
Turning to `CC(C)(O/N=C(\C(=O)N[C@@H]1C(=O)N2C(C(=O)[O-])=C(C[n+]3ccccc3)CS[C@H]12)c1csc(N)n1)C(=O)O` [ceftazidime, [6R -[6α,7β(Z)]]-1-[[7-[[(2-amino-4-thiazolyl)[(1-carboxy-1-methylethoxy)imino]acetyl]amino]-2-carboxy-8-oxo-5-thia-1-azabicyclo[4.2.0]oct-2-en-3-yl]methyl]pyridinium hydroxide inner salt], the MIC (in general, the smallest concentration in the dilution series that meets the test's criterion for growth inhibition) in the series with B. fragilis [1] (Bacteroides fragilis, ceftazidime alone) is around 7 µg/mL; in series [2] (ceftazidime alone), around 7 µg/mL. Moreover, the “selection of cells showing high-level resistance to ceftazidime” value in the series with E. cloacae (ceftazidime alone at 0.5 MIC) is given as “rapidly selected”.
Turning to `CC1(C)S[C@@H]2[C@H](NC(=O)[C@H](N)c3ccc(O)cc3)C(=O)N2[C@H]1C(=O)O` [Amoxycillin, 6-[D(−)-α-amino-p-hydroxypheny-acetamido]penicillanic acid], the Amoxycillin MIC was above 256 µg/mL in the series with Ent. cloacae N1; above 256 µg/mL in the series with Ent. cloacae P99; 128 µg/mL in the series with S. aureus Russell; above 256 µg/mL in the series on E. coli JT39; above 256 µg/mL with JT4; above 256 µg/mL with P. mirabilis C889. Besides, the figures for the Amoxycillin MIC with E. coli P91 and in the series on P. vulgaris C were above 256 µg/mL and 32 µg/mL, respectively.
With `CO/N=C(\C(=O)N[C@@H]1C(=O)N2C(C(=O)O)=C(COC(C)=O)CS[C@H]12)c1csc(N)n1` [Cefotaxime], in series [5] (Klebsiella pneumoniae, in the absence of Example 1), the MIC was 64 µg/mL. The “Cefotaxime CD50” value in series [7] (cefotaxime alone, s.c. at 1 and 5 h post-infection, E. cloacae 4593) was 240 mg/kg and 400 mg/kg; in series [8] (cefotaxime alone, s.c. at 1 and 5 h post-infection, K. pneumoniae), 54 mg/kg and 42 mg/kg.
